Data published in US20110070211A1 (priority 2009, published 2011).

Test system: DU-145 cells
Format: cell-based, Human

With C=C1[C@@H](C)[C@H]2[C@H](Cc3ccccc3)NC(=O)[C@]23[C@H](OC(C)=O)/C=C/[C@@](C)(O)C(=O)[C@@H](C)C/C=C/[C@H]3[C@@H]1O [Cytochalasin-D] the “Effect on cell migration” value was “did not migrate”, the “Relative Wound Density at 24 Hours, Mean” value was 3.3 ± 0.2 and the “Relative Wound Density at 24 Hours, Percent Relative to Media” value was 4%.
